Where a name gives a salt, the structure may show the parent alone.
experiment: in vitro; details: rat, gh3-tre-luc cells, AC50 (uM) modified / 1000

Compound | CC50 at 24 h
COC(=O)C(C)O (centres unmarked) [Methyl 2-hydroxypropanoate] | > 90 µM
O=C1c2cccc(O)c2C(=O)c2c(O)cc(CO)cc21 [Aloe-emodin] | > 90 µM
CCCCOc1ccc(CC(=O)NO)cc1 [Bufexamac] | > 20 µM
Cc1ncc(COP(=O)(O)O)c(CN)c1O [Pyridoxamine phosphate] | > 50 µM
CCCOc1ccccc1-c1nc2nn[nH]c2c(=O)[nH]1 [Zaprinast] | > 50 µM
Cc1cc(O)c2c(c1)C(=O)c1cccc(O)c1C2=O [Chrysophanic acid] | > 50 µM
CC(C)CCCCCCCOC(=O)c1ccc(C(=O)OCCCCCCCC(C)C)c(C(=O)OCCCCCCCC(C)C)c1 [Triisodecyl trimellitate] | > 80 µM
CCCC(CCC)C(N)=O [Valpromide] | > 50 µM
CC(=O)N[C@H]1C(O)O[C@H](CO)[C@H](O)[C@@H]1O (some centres unmarked) [N-Acetylgalactosamine] | > 50 µM
C[C@H](N[C@@H](CCc1ccccc1)C(=O)O)C(=O)N1CCC[C@H]1C(=O)O [Enalapril acid] | > 50 µM
Clc1ccc(Cn2c(CN3CCCC3)nc3ccccc32)cc1 [Clemizole hydrochloride] | > 20 µM
CCC(CC)(CC(=O)Nc1cccc(/C=C/c2nc(C3CCC3)cs2)c1)C(=O)O [Cinalukast] | > 50 µM
CC(C)c1ccc(O)c(C(C)C)c1 [2,4-Diisopropylphenol] | > 90 µM
OCc1c2ccccc2cc2ccccc12 [9-Anthracenemethanol] | > 90 µM
O=Cc1cc2ccccc2o1 [2-Benzofurancarboxaldehyde] | > 90 µM
C=CCCCCCCCCC(=O)OC [Methyl 10-undecenoate] | > 50 µM
O=P(O)(O)C(O)(Cc1cccnc1)P(=O)(O)O [Risedronate sodium] | > 50 µM
C=CN1CCCC1=O [N-Vinyl-2-pyrrolidone] | > 90 µM
O=C1CCc2ccc(OCCCCN3CCN(c4cccc(Cl)c4Cl)CC3)cc2N1 [Aripiprazole] | 11.8 µM
IC(I)=C(I)I [Tetraiodoethene] | 8.53 µM
C=CC(=O)OCCn1c(=O)n(CCOC(=O)C=C)c(=O)n(CCOC(=O)C=C)c1=O [(2,4,6-Trioxo-1,3,5-triazinane-1,3,5-triyl)triethane-2,1-diyl trisprop-2-enoate] | 4.99 µM

Compound | CC50 at 24 h
Clc1ccnc(Cl)n1 [2,4-Dichloropyrimidine] | > 90 µM
OCCC(F)(F)C(F)(F)C(F)(F)C(F)(F)C(F)(F)C(F)(F)F [6:2 Fluorotelomer alcohol] | > 90 µM
C[Si](Cl)(c1ccccc1)c1ccccc1 [Chloro(methyl)diphenylsilane] | > 90 µM
CC(=O)OCC(=O)NCCCOc1cccc(CN2CCCCC2)c1 [Roxatidine acetate hydrochloride] | > 50 µM
CCN(CC)CCO [N,N-Diethylethanolamine] | > 100 µM
CC(=O)Nc1ccccc1C [N-Acetyl-o-toluidine] | > 100 µM
CC(=O)OCC(=O)[C@@]12N=C(C)O[C@@H]1C[C@H]1[C@@H]3CCC4=CC(=O)C=C[C@]4(C)[C@H]3[C@@H](O)C[C@@]12C [Deflazacort] | > 90 µM
O=C(CS)OCCOC(=O)CS [Ethane-1,2-diyl bis(sulfanylacetate)] | > 90 µM
CC(C(=O)O)c1cccc(Oc2ccccc2)c1 (centres unmarked) [Fenoprofen calcium salt dihydrate] | > 20 µM
O=C(O)c1ccc(C(=O)O)cc1 [Terephthalic acid] | > 90 µM
CC(C)C[C@H](NC(=O)[C@@H](O)[C@H](N)Cc1ccccc1)C(=O)O [Ubenimex hydrochloride] | 1.62 µM
CCCOCC(C)OCC(C)O (centres unmarked) [Butyl dipropasol solvent] | > 90 µM
CCCc1ccccc1O [2-Propylphenol] | > 90 µM
COc1ccccc1N=Nc1c(S(=O)(=O)O)cc2cc(S(=O)(=O)O)cc(NC(C)=O)c2c1O [C.I. Acid Violet 12, disodium salt] | 36.9 µM
CCC(C)S (centres unmarked) [2-Butanethiol] | > 4 µM
C=C(C)C(=O)NCCCN(C)C [N-[3-(Dimethylamino)propyl]methacrylamide] | > 90 µM
C/C=C\C/C=C/CCCCCCCCOC(C)=O [(9E,12Z)-9,12-Tetradecadien-1-ol acetate] | > 90 µM
N[C@@H]1CON=C1O [Cycloserine] | > 50 µM
CC(=O)CC(=O)Nc1ccc(S(=O)(=O)O)cc1 [Potassium 4-[(3-oxobutanoyl)amino]benzenesulfonate] | > 90 µM
CC(=O)OC(C)(C)Cc1ccccc1 [Dimethylbenzylcarbinyl acetate] | > 90 µM
COc1ccc2c(c1)c(CC(=O)OCC(=O)O)c(C)n2C(=O)c1ccc(Cl)cc1 [Acemetacin] | > 50 µM

Compound | CC50 at 24 h
CC(COc1ccccc1)NC(C)C(O)c1ccc(O)cc1 (centres unmarked) [Isoxsuprine hydrochloride] | > 20 µM
CC(=O)Oc1cc(C(C)C)c(OCCN(C)C)cc1C [Moxisylyte hydrochloride] | > 20 µM
O=C(Cl)c1cccc([N+](=O)[O-])c1 [3-Nitrobenzoyl chloride] | > 90 µM
C1CCOC1 [Tetrahydrofuran] | > 100 µM
CC1(CO)CN(c2ccccc2)NC1=O (centres unmarked) [4-(Hydroxymethyl)-4-methyl-1-phenylpyrazolidin-3-one] | > 90 µM
CC1=CC(=O)CC(C)(C)C1 [Isophorone] | > 90 µM
CCCCCNCCCCC [Dipentylamine] | > 90 µM
c1ccc(C2CO2)cc1 (centres unmarked) [Styrene oxide] | > 90 µM
Cc1cc2nc3c(=O)[nH]c(=O)nc-3n(C[C@H](O)[C@H](O)[C@H](O)CO)c2cc1C [Riboflavin] | > 90 µM
CC(C)=CCC/C(C)=C/C=O [3,7-Dimethyl-2,6-octadienal] | > 90 µM
COc1ccc(O)cc1 [4-Methoxyphenol] | > 90 µM
O=C(CC(=O)C(F)(F)F)c1ccccc1 [4,4,4-Trifluoro-1-phenyl-1,3-butanedione] | > 90 µM
COc1ccc(C)cc1 [1-Methoxy-4-methylbenzene] | > 90 µM
CCCCCC(=O)OCC [Ethyl hexanoate] | > 90 µM
CC(C)OC(=O)COc1ccc(Cl)cc1Cl [2,4-D isopropyl ester] | > 90 µM
CC(=O)SCc1ccco1 [S-Furfuryl thioacetate] | > 90 µM
CS(=O)(=O)c1ccc(Cl)cc1 [4-Chlorophenyl methyl sulfone] | > 90 µM
O=C[C@H](O)[C@@H](O)[C@H](O[C@H]1O[C@H](CO)[C@@H](O[C@H]2O[C@H](CO)[C@@H](O)[C@H](O)[C@H]2O)[C@H](O)[C@H]1O)[C@H](O)CO [Maltotriose] | > 50 µM
C=CC[N@@+]12CC[C@@]34c5ccccc5N5/C=C6/[C@H]7C[C@H]8[C@@]9(CC[N@@+]8(CC=C)C/C7=C/CO)c7ccccc7N(/C=C(/[C@@H](C[C@@H]31)/C(=C\CO)C2)[C@H]54)[C@@H]69 [Alcuronium chloride] | > 20 µM
C=C(C#N)CCC#N [2-Methylenepentanedinitrile] | > 90 µM
CC(=O)CCC1=C(C)CCCC1(C)C [Dihydro-beta-ionone] | > 90 µM

same assay, conditions: rat, gh3-tre-luc cells, AC50 (uM) modified / 1000, Tox21_110001=Tox21_112051; viability, 1 nM T3 present, 24 h

Compound | CC50 at 24 h
C[C@H](N)[C@H](O)c1ccc(O)c(O)c1 [Levonordefrin] | 22 µM

same assay, conditions: rat, gh3-tre-luc cells, AC50 (uM) modified / 1000, Tox21_110001=Tox21_112890; viability, 1 nM T3 present, 24 h

Compound | CC50 at 24 h
CN(C)CCc1c[nH]c2ccc(O)cc12 [Bufotenine] | > 90 µM

same assay, conditions: rat, gh3-tre-luc cells, AC50 (uM) modified / 1000, Tox21_110001=Tox21_113608; viability, 1 nM T3 present, 24 h

Compound | CC50 at 24 h
O=[P@]1(N(CCCl)CCCl)N[C@H](OO)CCO1 [4-Hydroperoxy cyclophosphamide] | > 50 µM

same assay, conditions: rat, gh3-tre-luc cells, AC50 (uM) modified / 1000, Tox21_110001=Tox21_201089; viability, 1 nM T3 present, 24 h

Compound | CC50 at 24 h
ClCc1ccccc1Cl [2-Chlorobenzyl chloride] | > 90 µM

same assay, conditions: rat, gh3-tre-luc cells, AC50 (uM) modified / 1000, Tox21_110001=Tox21_201652; viability, 1 nM T3 present, 24 h

Compound | CC50 at 24 h
O=C1C(Cl)=C(Cl)C(=O)c2ccccc21 [Dichlone] | 31.4 µM

same assay, conditions: rat, gh3-tre-luc cells, AC50 (uM) modified / 1000, Tox21_110001=Tox21_201756; viability, 1 nM T3 present, 24 h

Compound | CC50 at 24 h
CCOP(=S)(OCC)OP(=S)(OCC)OCC [Sulfotepp] | > 90 µM

same assay, conditions: rat, gh3-tre-luc cells, AC50 (uM) modified / 1000, Tox21_110001=Tox21_201790; viability, 1 nM T3 present, 24 h

Compound | CC50 at 24 h
CCCCCCCCCCCCCl [1-Chlorododecane] | > 90 µM

same assay, conditions: rat, gh3-tre-luc cells, AC50 (uM) modified / 1000, Tox21_110001=Tox21_300606; viability, 1 nM T3 present, 24 h

Compound | CC50 at 24 h
O=C(O)C(F)(F)C(F)(F)C(F)(F)C(F)(F)C(F)(F)C(F)(F)C(F)(F)C(F)(F)C(F)(F)C(F)(F)F [Perfluoroundecanoic acid] | > 90 µM

same assay, conditions: rat, gh3-tre-luc cells, AC50 (uM) modified / 1000, Tox21_110001=Tox21_301347; viability, 1 nM T3 present, 24 h

Compound | CC50 at 24 h
COP(=S)(OC)Oc1c(Cl)cc(C)cc1Cl [Tolclofos-methyl] | > 90 µM

same assay, conditions: rat, gh3-tre-luc cells, AC50 (uM) modified / 1000, Tox21_110001=Tox21_301860; viability, 1 nM T3 present, 24 h

Compound | CC50 at 24 h
CC(=O)CC(c1ccc(Cl)cc1)c1c(O)c2ccccc2oc1=O (centres unmarked) [Coumachlor] | > 100 µM

same assay, conditions: rat, gh3-tre-luc cells, AC50 (uM) modified / 1000, Tox21_110001=Tox21_302059; viability, 1 nM T3 present, 24 h

Compound | CC50 at 24 h
BrCCCCCCBr [1,6-Dibromohexane] | > 90 µM

same assay, conditions: rat, gh3-tre-luc cells, AC50 (uM) modified / 1000, Tox21_110001=Tox21_302404; viability, 1 nM T3 present, 24 h

Compound | CC50 at 24 h
CCCCC(CC)COC(=O)c1c(Br)c(Br)c(Br)c(Br)c1C(=O)OCC(CC)CCCC (centres unmarked) [Bis(2-ethylhexyl) tetrabromophthalate] | > 70 µM

same assay, conditions: rat, gh3-tre-luc cells, AC50 (uM) modified / 1000, Tox21_110001=Tox21_303031; viability, 1 nM T3 present, 24 h

Compound | CC50 at 24 h
O=C1C(Cl)=C(Cl)C(=O)c2ccccc21 [Dichlone] | 7.73 µM

same assay, conditions: rat, gh3-tre-luc cells, AC50 (uM) modified / 1000, Tox21_110001=Tox21_303039; viability, 1 nM T3 present, 24 h

Compound | CC50 at 24 h
COc1ccc(N)cc1 [4-Methoxyaniline] | > 100 µM

— article PMC6792352, “Limited Chemical Structural Diversity Found to Modulate Thyroid Hormone Receptor in the Tox21 Chemical Library” (Environmental Health Perspectives, 2019)
